pEC50: −log10 of the molar value. Like-named read-outs stand apart in the source and are kept apart here. Where only a bound is given, the exact number is not on record here.

This experiment has as its system HCV (Ib) RNA replication. As to the kind of experiment: Cell-based luciferase reporter HCV (1b) RNA replication assay (replicon cell lines Huh-7 5.2 and ET). On the set-up: species or system Hepatitis C virus. The conditions noted are these: HCV 1b genotype replicon, luciferase readout, 4 days incubation, read-out: EC50_1b. The method in brief: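 Huh-7-derived 5.2 or ET replicon cells carrying a firefly luciferase reporter were seeded at ~3000 cells/well in medium without G418 or phenol red. Compound was added after 3-4 h, followed by 4 days at 37 °C. Luciferase readout was used, with IC50 fitted by nonlinear regression from eleven concentrations in duplicate.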
(In general: In a reporter assay the amount or activity of a reporter protein is the signal.)

With `COCc1cc(-c2ccc3[nH]c([C@@H]4CCCN4C(=O)[C@@H](NC(=O)OC)C(C)C)nc3c2)c(COC)cc1-c1ccc2[nH]c([C@@H]3CCCN3C(=O)[C@@H](NC(=O)OC)C(C)C)nc2c1` [Compound 218], the pEC50 (Hepatitis C virus, Huh-7, 96 h) was no less than 8.30. As for `COC(=O)N[C@H](C(=O)N1CCC[C@H]1c1nc2cc(-c3ccc(-c4ccc5nc([C@@H]6CCCN6C(=O)[C@@H](NC(=O)OC)C(C)(C)O)[nH]c5c4)c4c3OCO4)ccc2[nH]1)C(C)(C)O` [Compound 219], the pEC50 (Hepatitis C virus, Huh-7, 96 h) is no less than 8.30. Regarding `COC(=O)N[C@H](C(=O)N1CCC[C@H]1c1nc2cc(-c3ccc(-c4ccc5nc([C@@H]6CCCN6C(=O)[C@@H](NC(=O)OC)C(C)C)[nH]c5c4)cc3CF)ccc2[nH]1)C(C)C` [Compound 220], the pEC50 (Hepatitis C virus, Huh-7, 96 h) was no less than 8.30. On the same count and under the same terms, for `COC(=O)N[C@H](C(=O)N1CCC[C@H]1c1nc2cc(-c3ccc(-c4ccc5[nH]c([C@@H]6CCCN6C(=O)[C@@H](NC(=O)OC)C(C)C)nc5c4)c4c3OC(F)(F)O4)ccc2[nH]1)C(C)C` [Compound 221] the value was no less than 8.30. On the same count and under the same terms, for `COC(=O)N[C@H](C(=O)N1C[C@@H](OC)C[C@H]1c1nc2cc(-c3ccc(-c4ccc5[nH]c([C@@H]6C[C@H](OC)CN6C(=O)[C@@H](NC(=O)OC)C(C)C)nc5c4)cc3)ccc2[nH]1)C(C)C` [Compound 222] the value was no less than 8.30; for `Cn1c([C@@H]2CCCN2C(=O)OC(C)(C)C)nc2cc(-c3ccc(-c4ccc5c(c4)nc([C@@H]4CCCN4C(=O)OC(C)(C)C)n5C)cc3)ccc21` [Compound 225], less than 5.30.

As for `Cn1c([C@@H]2CCCN2C(=O)OC(C)(C)C)nc2cc(-c3ccc(-c4ccc5[nH]c([C@@H]6CCCN6C(=O)OC(C)(C)C)nc5c4)cc3)ccc21` [Compound 226], the pEC50 (Hepatitis C virus, Huh-7, 96 h) was 5.30 to 8.30. As to `Cn1c([C@@H]2CCCN2)nc2cc(-c3ccc(-c4ccc5c(c4)nc([C@@H]4CCCN4)n5C)cc3)ccc21` [Compound 227], where the note is “Hepatitis C virus, Huh-7, 96 h”, the pEC50 was less than 5.30.

Turning to `Cn1c([C@@H]2CCCN2)nc2cc(-c3ccc(-c4ccc5[nH]c([C@@H]6CCCN6)nc5c4)cc3)ccc21` [Compound 228], the pEC50 (Hepatitis C virus, Huh-7, 96 h) was less than 5.30.

`COC(=O)N[C@H](C(=O)N1CCC[C@H]1c1nc2ccc(N3CCN(c4ccc5nc([C@@H]6CCCN6C(=O)[C@@H](NC(=O)OC)C(C)C)[nH]c5c4)CC3)cc2[nH]1)C(C)C` [Compound 229]: the pEC50 (Hepatitis C virus, Huh-7, 96 h) was no less than 8.30.

Take `O=C1O[C@@H]2C[C@@H]3C[C@@H]2[C@@H]1[C@H]3C(=O)N1CCC[C@H]1c1nc2cc(-c3ccc(-c4ccc5[nH]c([C@@H]6CCCN6C(=O)[C@H]6[C@H]7C[C@@H]8[C@H]6C(=O)O[C@@H]8C7)nc5c4)cc3)ccc2[nH]1` [Compound 230]: the pEC50 (Hepatitis C virus, Huh-7, 96 h) was 5.30 to 8.30.

As for `COC(=O)N[C@H](C(=O)N1CCC[C@H]1c1nc2cc(-c3ccc(-c4ccc5c(c4)nc([C@@H]4CCCN4C(=O)[C@@H](NC(=O)OC)C(C)C)n5C)cc3)ccc2n1C)C(C)C` [Compound 231], the pEC50 (Hepatitis C virus, Huh-7, 96 h) was less than 5.30. `COC(=O)N[C@H](C(=O)N1CCC[C@H]1c1nc2cc(-c3ccc(-c4ccc5c(c4)nc([C@@H]4CCCN4C(=O)[C@@H](NC(=O)OC)C(C)C)n5C)cc3)ccc2[nH]1)C(C)C` [Compound 232]: the pEC50 (Hepatitis C virus, Huh-7, 96 h) was no less than 8.30. Consider `COC(=O)N[C@H](C(=O)N1C[C@@H](C)C[C@H]1c1nc2cc(-c3cc4sc(-c5ccc6[nH]c([C@@H]7C[C@H](C)CN7C(=O)[C@@H](NC(=O)OC)C(C)C)nc6c5)cc4s3)ccc2[nH]1)C(C)C` [Compound 233], for which, for the setting “Hepatitis C virus, Huh-7, 96 h”, the pEC50 is no less than 8.30.

Regarding `COC(=O)N[C@H](C(=O)N1[C@H](c2nc3cc(-c4ccc(-c5ccc6[nH]c([C@@H]7C[C@@H]8C[C@@H]8N7C(=O)[C@@H](NC(=O)OC)C(C)C)nc6c5)cc4)ccc3[nH]2)C[C@@H]2C[C@@H]21)C(C)C` [Compound 234], for the setting “Hepatitis C virus, Huh-7, 96 h”, the pEC50 was no less than 8.30. For the compound `COC(=O)N[C@H](C(=O)N1CC[C@@H](O)[C@H]1c1nc2ccc(-c3ccc(-c4ccc5nc([C@@H]6[C@H](O)CCN6C(=O)[C@@H](NC(=O)OC)C(C)C)[nH]c5c4)cc3)cc2[nH]1)C(C)C` [Compound 235], the pEC50 (Hepatitis C virus, Huh-7, 96 h) is no less than 8.30. `COC(=O)N[C@H](C(=O)N1CCC[C@H]1c1nc2ccc(-c3coc(-c4ccc5nc([C@@H]6CCCN6C(=O)[C@@H](NC(=O)OC)C(C)C)[nH]c5c4)n3)cc2[nH]1)C(C)C` [Compound 236]: the pEC50 (Hepatitis C virus, Huh-7, 96 h) was no less than 8.30. For `COC(=O)N[C@H](C(=O)N1C[C@@H](C)C[C@H]1c1nc2cc(-c3ccc(-c4ccc5[nH]c([C@@H]6C[C@H](C)CN6C(=O)[C@@H](NC(=O)OC)C(C)C)nc5c4)c(C)c3)ccc2[nH]1)C(C)C` [Compound 237], the pEC50 (Hepatitis C virus, Huh-7, 96 h) was no less than 8.30. With `COC(=O)N[C@H](C(=O)N1CCC[C@H]1c1nc2ccc(-c3cn(C)c(-c4ccc5nc([C@@H]6CCCN6C(=O)[C@@H](NC(=O)OC)C(C)C)[nH]c5c4)n3)cc2[nH]1)C(C)C` [Compound 238], for the setting “Hepatitis C virus, Huh-7, 96 h”, the pEC50 was 5.30 to 8.30. On to `COC(=O)N[C@H](C(=O)N1[C@@H]2C[C@@H]2C[C@H]1c1nc2cc(-c3ccc(-c4ccc5[nH]c([C@@H]6C[C@H]7C[C@H]7N6C(=O)[C@@H](NC(=O)OC)C(C)C)nc5c4)cc3)ccc2[nH]1)C(C)C` [Compound 240], for which the pEC50 (Hepatitis C virus, Huh-7, 96 h) was no less than 8.30. The same measure, in the same setting: for `COC(=O)N[C@H](C(=O)N1CCC[C@H]1c1nc2cc(-c3ccc(-c4ccc5[nH]c([C@@H]6CCCN6C(=O)[C@@H](Nc6ncccn6)C(C)C)nc5c4)cc3)ccc2[nH]1)C(C)C` [Compound 241] the value was no less than 8.30; for `COC(=O)N[C@H](C(=O)N1C[C@@H](C)C[C@H]1c1nc2cc(-c3ccc(-c4ccc5[nH]c([C@@H]6C[C@H](C)CN6C(=O)[C@@H](NC(=O)OC)C(C)C)nc5c4)c(F)c3)ccc2[nH]1)C(C)C` [Compound 242], no less than 8.30.

Regarding `COC(=O)N[C@H](C(=O)N1CC2CC2C1c1nc2cc(-c3ccc(-c4ccc5[nH]c(C6C7CC7CN6C(=O)[C@@H](NC(=O)OC)C(C)C)nc5c4)cc3)ccc2[nH]1)C(C)C` (stereo partly drawn) [Compound 243], under “Hepatitis C virus, Huh-7, 96 h”, the pEC50 is no less than 8.30. Turning to `COC(=O)N[C@H](C(=O)N1CC2CC2C1c1nc2cc(-c3ccc(-c4ccc5[nH]c(C6C7CC7CN6C(=O)[C@@H](NC(=O)OC)C(C)C)nc5c4)cc3)ccc2[nH]1)C(C)C` (stereo partly drawn) [Compound 244], the pEC50 was no less than 8.30.

With `COC(=O)N[C@H](C(=O)N1CC2(CC2)C[C@H]1c1nc2cc(-c3ccc(-c4ccc5[nH]c([C@@H]6CC7(CC7)CN6C(=O)[C@@H](NC(=O)OC)C(C)C)nc5c4)cc3)ccc2[nH]1)C(C)C` [Compound 245], the pEC50 (Hepatitis C virus, Huh-7, 96 h) is no less than 8.30. Consider `COC(=O)N[C@H](C(=O)N1C[C@@H](C)C[C@H]1c1nc2cc(-c3ccc(-c4ccc5nc([C@@H]6C[C@@H](O)CN6C(=O)[C@H](NC(=O)OC)C(C)C)[nH]c5c4)cc3)ccc2[nH]1)C(C)C` [Compound 246], for which the pEC50 (Hepatitis C virus, Huh-7, 96 h) is no less than 8.30. For the compound `COC(=O)N(C)[C@H](C(=O)N1C[C@@H](C)C[C@H]1c1nc2cc(-c3ccc(-c4ccc5[nH]c([C@@H]6C[C@H](C)CN6C(=O)[C@H](C(C)C)N(C)C(=O)OC)nc5c4)cc3)ccc2[nH]1)C(C)C` [Compound 247], the pEC50 (Hepatitis C virus, Huh-7, 96 h) was no less than 8.30.

With `COC(=O)N[C@H](C(=O)N1C[C@H](C)C[C@H]1c1nc2cc(-c3ccc(-c4ccc5[nH]c([C@@H]6C[C@@H](C)CN6C(=O)[C@@H](NC(=O)OC)C(C)C)nc5c4)cc3)ccc2[nH]1)C(C)C` [Compound 248], the pEC50 (Hepatitis C virus, Huh-7, 96 h) is no less than 8.30. `COC(=O)N[C@H](C(=O)N1CCC[C@@]1(C)c1nc2cc(-c3ccc(-c4ccc5[nH]c([C@]6(C)CCCN6C(=O)[C@@H](NC(=O)OC)C(C)C)nc5c4)cc3)ccc2[nH]1)C(C)C` [Compound 249]: the pEC50 (Hepatitis C virus, Huh-7, 96 h) was no less than 8.30.

Take `COC(=O)N[C@H](C(=O)N1CCC[C@H]1c1nc2c(F)cc(-c3ccc(-c4cc(F)c5nc([C@@H]6CCCN6C(=O)[C@@H](NC(=O)OC)C(C)C)[nH]c5c4)cc3)cc2[nH]1)C(C)C` [Compound 250]: under “Hepatitis C virus, Huh-7, 96 h”, the pEC50 is no less than 8.30.

As for `COC(=O)N[C@H](C(=O)N1C[C@@H](C)C[C@H]1c1nc2cc(C#CC#Cc3ccc4[nH]c([C@@H]5C[C@H](C)CN5C(=O)[C@@H](NC(=O)OC)C(C)C)nc4c3)ccc2[nH]1)C(C)C` [Compound 251], the pEC50 (Hepatitis C virus, Huh-7, 96 h) is no less than 8.30. As for `COC(=O)N[C@H](C(=O)N1C[C@@H](C)C[C@H]1c1nc2cc(-c3cc(C)c(-c4ccc5[nH]c([C@@H]6C[C@H](C)CN6C(=O)[C@@H](NC(=O)OC)C(C)C)nc5c4)cc3C)ccc2[nH]1)C(C)C` [Compound 252], the pEC50 (Hepatitis C virus, Huh-7, 96 h) was no less than 8.30. For `COC(=O)N[C@H](C(=O)N1C[C@@H](C)C[C@H]1c1nc2cc(-c3ccc(-c4ccc5[nH]c([C@@H]6C[C@H](C)CN6C(=O)[C@H](C(C)C)N(C)C(=O)OC)nc5c4)cc3)ccc2[nH]1)C(C)C` [Compound 253], the pEC50 (Hepatitis C virus, Huh-7, 96 h) was no less than 8.30. Turning to `COC(=O)N[C@H](C(=O)N1CCC[C@H]1c1nc2c(F)cc(-c3ccc(-c4cc(F)c5nc([C@@H]6CCCN6C(=O)[C@@H](NC(=O)OC)C(C)C)[nH]c5c4)c(C)c3)cc2[nH]1)C(C)C` [Compound 254], the pEC50 (Hepatitis C virus, Huh-7, 96 h) was no less than 8.30. On the same count and under the same terms, for `COC(=O)N[C@H](C(=O)N1CCC[C@H]1c1nc2cc(-c3ccc(-c4ccc5nc([C@@H]6CCCN6C(=O)[C@@H](NC(=O)OC)C(C)C)n(C)c5c4)cc3)ccc2[nH]1)C(C)C` [Compound 255] the value was no less than 8.30; for `Cn1c(C2CCCN2C(=O)OC(C)(C)C)nc2ccc(-c3ccc(-c4ccc5[nH]c(C6CCCN6C(=O)OC(C)(C)C)nc5c4)cc3)cc21` (stereo not drawn) [Compound 256], 5.30 to 8.30; for `Cn1c([C@@H]2CCCN2C(=O)OC(C)(C)C)nc2ccc(-c3ccc(-c4ccc5nc([C@@H]6CCCN6C(=O)OC(C)(C)C)n(C)c5c4)cc3)cc21` [Compound 257], 5.30 to 8.30.

For the compound `COC(=O)N[C@H](C(=O)N1CCC[C@H]1c1nc2ccc(N3C[C@H](C)N(c4ccc5nc([C@@H]6CCCN6C(=O)[C@@H](NC(=O)OC)C(C)C)[nH]c5c4)C[C@H]3C)cc2[nH]1)C(C)C` [Compound 258], the pEC50 (Hepatitis C virus, Huh-7, 96 h) was no less than 8.30.

Turning to `COC(=O)N[C@H](C(=O)N1CCC[C@H]1c1nc2ccc(-c3ccc(-c4ccc5nc([C@@H]6CCCN6C(=O)[C@@H](NC(=O)OC)C(C)C)n(C)c5c4)cc3)cc2n1C)C(C)C` [Compound 259], under “Hepatitis C virus, Huh-7, 96 h”, the pEC50 was no less than 8.30.

The values above are taken from patent publication US8354419B2, “Benzimidazole analogues for the treatment or prevention of flavivirus infections” (Vertex Pharmaceuticals Incorporated, priority 2009, dated 2013).
